Entries after “also recorded” stand apart in the source; their conditions may differ. Read-outs that look alike come from different tables or passages of the source.
Tests used:
[1] = test system: L. mexicana amastigotes in bone marrow-derived macrophages; test: Amastigote assay in infected bone marrow-derived macrophages; format: cell-based, Leishmania mexicana; conditions: for IC50: Leishmania mexicana, BMDM, in Mus musculus, 48 h, read-out: Amastigote IC50, 48 hours, infected BMDM from C57BL/6 mice; for antileishmanial activity against the amastigote stage (in words): 48 h treatment
Source text: Bone marrow derived macrophages were obtained from C57BL/6 mice. Bone marrow-derived macrophages (BMDM) (0.5×10^6) were adhered on top of glass rounded coverslips deposited at the bottom of individual plate's well (24 well tissue culture plate, Corning, Inc.). Next, macrophages were infected overnight with 2.5×10^6 stationary phase promastigotes of the L. mexicana (ratio 5:1). After this period, cells were extensively washed with Hank's balanced salt solution (HBSS) to eliminate non-phagocytosed parasites, and, after treatment with test compounds for 48 hours, cells were stained with Giemsa stain (Sigma). In each experiment, infection rates were recorded by counting the number of parasites in 100 macrophages on each slide in triplicate in a blinded fashion.

[2] = test system: splenocytes stimulated with L. donovani antigen; test: Splenocyte T cell proliferation (Alamar blue) and cytokine ELISA after L. donovani antigen stimulation; format: in vivo, BALB/c mice; conditions: liposomal preparation
Protocol: One week after the treatment, the mice were euthanized and parasite loads in the liver and spleen were determined. Parasite loads in the spleen and liver were quantified as previously described (Murray, H. W. 2000. Infect Immun. 68: 6294-6299). Briefly, the liver and spleen impression smears were stained using Giemsa and parasite loads we quantified microscopically. LDU is determined by the number of amastigotes per 1000 nuclei multiplied by the weight (gm) of the liver or spleen. At this time, spleen cell suspensions were prepared and these cells were stimulated in vitro with 20 microgram/ml of Leishmania donovani antigen for 48-72 hrs to stimulate lymphocyte release. Proliferation of spleen cells were determined by Alamar blue assays and levels of cytokines including IFN-gamma in supernatant were quantified by ELISA using commercially available reagents from Biolegend and BD Biosciences.
T cell proliferation was determined as previously described (Rosas, L. E., et al., 2006. Am. J. Pathol. 168: 158-169.). Briefly, 5×10^5 cells were added in quadruplicate to the wells of sterile 96-well, flat-bottom tissue culture plates and stimulated with freeze-thawed L. donovani Ag (20 μg/ml). The proliferation responses were measured by Alamar blue assay (Ansar-Ahmed, A., et al., 1994. J. Immunol. Methods 170: 211-214.). Supernatants were collected after 72 hours of incubation at 37° C. and analyzed for the production of IFN-γ and IL-10 by standard ELISA methods (BD Pharmingen, Inc., San Diego, Calif.).

[3] = test system: Leishmania donovani (Strain LV9); test: In vivo activity of liposomal preparation of compound 1, parasite loads in liver and spleen; design: species or system BALB/c mice; conditions: 46.1 μg compound 1, tail vein, one week after treatment
Protocol: Liposomes were made by rehydration of a lipid cake. First, hydrogenated soy phosphatidylcholine (Avanti Polar Lipids, Inc., Alabaster, Ala.), cholesterol (Avanti Polar Lipids), 1,2-distearoyl-sn-glycero-3-[phospho-rac-(1-glycerol)] (“DSPG”; Avanti Polar Lipids,), and α-tocopherol (Sigma-Aldrich Corporation, St. Louis, Mo.) were dissolved in a chloroform and methanol (9:1, v/v). Compound 1 was dissolved in the lipid solution at a weight ratio of compound 1 to lipid of 1:9 (i.e. for clarity, the solution comprised 10% by weight of compound 1 and 90% by weight of the lipid solution). The solution was placed on at rotary evaporator for about 30 minutes and the liquid was completely evaporated. The lipids were reconstituted into liposomes in deionized water (3 mL) for 30 minutes in a 60° C. water bath, followed by 3 freeze-thaw cycles. […] Loading of liposomes was verified and quantified by HPLC. […]
One week after the treatment, the mice were euthanized and parasite loads in the liver and spleen were determined. Parasite loads in the spleen and liver were quantified as previously described (Murray, H. W. 2000. Infect Immun. 68: 6294-6299). Briefly, the liver and spleen impression smears were stained using Giemsa and parasite loads we quantified microscopically. LDU is determined by the number of amastigotes per 1000 nuclei multiplied by the weight (gm) of the liver or spleen. […]

[4] = test system: intracellular parasites (L. mexicana amastigotes); test: Electron microscopy of treated intracellular parasites; format: cell-based, Leishmania mexicana; conditions: 100 μM, 2 h
Protocol: Intracellular parasites were co-cultured, as previously described herein, by treating a 100 μM concentration of each pure compound for 2 h and suspending them in glutaraldehyde. Samples were further processed in an electron microscopy unit as follows: Incubation steps were carried out on a Lab-Line orbital shaker operating at 700 rpm (Barnstead/Thermolyne, Melrose Park, Ill.). After the initial fixation in 3% buffered glutaraldehyde, cell pellets were washed twice with sodium cacodylate buffer (pH 7.4, 10 minutes each) and spun down after each wash at 1500 rpm for 5 min. Cell samples were then post-fixed in 1% osmium tetroxide in sym-collidine buffer (pH 7.6) for 1 h at room temperature. Following two washes with sym-collidine buffer (10 min each) the cell pellet was stained with a saturated aqueous uranyl acetate solution (pH 3.3) for 1 h. Cell pellets were dehydrated in a graded EtOH series up to absolute (10 min each). Acetone was used as the transitional solvent, two changes for 10 min each. The cell suspensions were infiltrated overnight with a 1:1 mixture of acetone and Spurr's epoxy resin (Electron Microscopy Sciences, Fort Washington, Pa.). Finally, cell pellets were placed into BEEM™ embedding capsules containing 100% Spurr's resin. Polymerization of epoxy blocks was carried out at 70° C. overnight. Polymerized blocks were sectioned with a Leica Ultraut UCT ultramicrotome (Leica Microsystem GmbH, Wein, Austria). Methylene Blue-Basic Fuschin stained semi-thin (750 nm) sections were evaluated and two representative areas were thin-sectioned for ultrastructural examination. Ultrathin (80 nm) sections were collected on 200 mesh copper grids (Electron Microscopy Sciences) and post-stained with lead citrate (3 min).

[5] = test system: promastigotes of L. mexicana; test: Promastigote assay (L. mexicana, flow cytometry with propidium iodide); format: cell-based, Leishmania mexicana; conditions: for antileishmanial activity against promastigotes (in words): 48 h exposure; for IC50: Leishmania mexicana, 48 h, linear regression from 1, 10, 50 and 100 μg/mL
Protocol: Leishmania mexicana (MNYC/BZ/62/M379) was maintained by serial passage of amastigotes inoculated subcutaneously into the shaven rumps of 129SvE mice and was obtained by in vitro culture of amastigotes in RPMI-1640 supplemented with 10% fetal calf serum (FCS, Sigma-Aldrich Corporation, St. Louis, Mo.) and incubated at 28° C. All work including experimental animals was approved by the Institutional Animal Care and Use Committee (IACUC) of The Ohio State University.
One million log phase promastigotes of L. mexicana were seeded in 1 mL of complete RPMI-1640 medium, and parasite numbers, and their mobility and morphology were measured from 24 and 48 h. This was performed by flow cytometry measurements using experimental and control groups of parasites stained with propidium iodide and with Quillaja saponaria saponin as positive control, as reported in the literature. The test compounds isolated from P. andrieuxii were compared with a positive control: sodium stibogluconate, a pentavalent antimonial drug.

[6] = 48 hours in culture, read-out: Promastigote IC50

SMILES | IC50 [1] [µM] | electron microscopy findings in intracellular parasites [4] | antileishmanial activity against promastigotes (in words) [5] | IC50 [5, 6] [µM] | antileishmanial activity against the amastigote stage (in words) [1] | further results
C=C(CCC=C(C)C)[C@H]1CC[C@H]2[C@@H]3CCC4=CC(=O)CC[C@]4(C)[C@H]3CCC12C (stereo in doubt) [Compound 1, (8S,9S,10R,13R,14S,17R)-cholest-4,20,24-trien-3-one] | 3.3 | morphological abnormalities and destruction of the amastigotes | significant leishmanicidal activity; also recorded: inhibitory effects | 30 |  | levels of IL-10 secreted from splenocytes ([2]; Leishmanial antigen stimulation): no significant change; secretion of IFN-γ from splenocytes ([2]; Leishmanial antigen stimulation, P value<0.01): significant increase; T cell proliferation of splenocytes upon Leishmanial antigen stimulation ([2]; vs group without compound 1, P value<0.0001): significant increase; parasite load in hepatic cells [3]: decreased parasite load; parasite load in splenic cells [3]: decreased parasite load; activity relative to cholest-4-en-3-one (4), promastigote bioassay [5]: almost three times more active
C=C(CC[C@@H](C)[C@H]1CC[C@H]2[C@@H]3CCC4=CC(=O)CC[C@]4(C)[C@H]3CC[C@]12C)C(C)C [Compound 3, 24-methylcholesta-4,24(28)-dien-3-one] | 3.5 | morphological abnormalities and destruction of the amastigotes | significant leishmanicidal activity; also recorded: inhibitory effects | 24 |  | 
CC(C)CCC[C@@H](C)[C@H]1CC[C@H]2[C@@H]3CCC4=CC(=O)CC[C@]4(C)[C@H]3CC[C@]12C [Compound 4, cholest-4-en-3-one] | 0.03 | morphological abnormalities and destruction of the amastigotes | inhibitory effects | 81 |  | potency relative to pentostam, amastigote stage ([1]; ratio of IC50 values): ~100 times
CC[C@H](/C=C/[C@@H](C)[C@H]1CC[C@H]2[C@@H]3CCC4=CC(=O)CC[C@]4(C)[C@H]3CC[C@]12C)C(C)C [Compound 5, stigmast-4,22-dien-3-one] |  |  | inactive |  | inactive | 
CC[C@H](CC[C@@H](C)[C@H]1CC[C@H]2[C@@H]3CCC4=CC(=O)CC[C@]4(C)[C@H]3CC[C@]12C)C(C)C [Compound 6, stigmast-4-en-3-one] |  |  | inactive |  | inactive | 
C=C(CCC=C(C)C)[C@H]1CC[C@H]2[C@@H]3CC=C4C[C@@H](O)CC[C@]4(C)[C@H]3CC[C@]12C [Compound 7, cholest-5,20,24-trien-3β-ol] | 14.5 |  | inactive | > 262 | significant activity; also recorded: active | 
CC(=O)C1=CC[C@H]2[C@@H]3CCC4=CC(=O)CC[C@]4(C)[C@H]3C[C@@H](O)[C@]12C [Compound 15, 6,7-dihydroneridienone] |  | morphological abnormalities and destruction of the amastigotes | potent; also recorded: inhibitory effects |  |  | 
CC(=O)C1=CC[C@H]2[C@@H]3C=CC4=CC(=O)CC[C@]4(C)[C@H]3C[C@@H](O)[C@]12C [Compound 16, neridienone] |  | morphological abnormalities and destruction of the amastigotes | significant leishmanicidal activity; also recorded: inhibitory effects |  |  | IC50 ([5]; read-out: Promastigote IC50, 48 hours in culture): 9.2 µM

Source: patent publication US10174072B2, “Antileishmanial compositions and methods of use” (Ohio State Innovation Foundation, priority 2011, dated 2019)
